Data as given in the NIST ThermoML archive (doi:10.1021/je300972a).
± gives the expanded uncertainty stated by the source.

Assay: refractive index (Na D-line) (dimensionless); xn = mol fraction of the nth substance listed
Conditions: 101 kPa, Liquid, Standard Abbe refractometry

CCCC[n+]1ccc(C)cc1.O=S(=O)([N-]S(=O)(=O)C(F)(F)F)C(F)(F)F + CCCC[n+]1ccccc1.F[B-](F)(F)F
refractive index
Conditions	293.15 K	303.15 K	313.15 K	323.15 K	333.15 K	343.15 K	353.15 K
x2 = 0	1.448 ± 0.0007	1.4449 ± 0.0007	1.4419 ± 0.0007	1.4388 ± 0.0007	1.4358 ± 0.0007	1.4328 ± 0.0007	1.4298 ± 0.0007
x2 = 0.0575	1.4479 ± 0.0007	1.4448 ± 0.0007	1.4418 ± 0.0007	1.4388 ± 0.0007	1.4357 ± 0.0007	1.4328 ± 0.0007	1.4298 ± 0.0007
x2 = 0.1136	1.4477 ± 0.0007	1.4446 ± 0.0007	1.4416 ± 0.0007	1.4386 ± 0.0007	1.4356 ± 0.0007	1.4327 ± 0.0007	1.4297 ± 0.0007
x2 = 0.2311	1.4474 ± 0.0007	1.4444 ± 0.0007	1.4414 ± 0.0007	1.4385 ± 0.0007	1.4356 ± 0.0007	1.4327 ± 0.0007	1.4298 ± 0.0007
x2 = 0.3515	1.4472 ± 0.0007	1.4443 ± 0.0007	1.4414 ± 0.0007	1.4385 ± 0.0007	1.4356 ± 0.0007	1.4327 ± 0.0007	1.4299 ± 0.0007
x2 = 0.4566	1.4471 ± 0.0007	1.4441 ± 0.0007	1.4413 ± 0.0007	1.4384 ± 0.0007	1.4356 ± 0.0007	1.4328 ± 0.0007	1.43 ± 0.0007
x2 = 0.5692	1.4469 ± 0.0007	1.4441 ± 0.0007	1.4413 ± 0.0007	1.4385 ± 0.0007	1.4357 ± 0.0007	1.433 ± 0.0007	1.4302 ± 0.0007
x2 = 0.673	1.4468 ± 0.0007	1.444 ± 0.0007	1.4413 ± 0.0007	1.4385 ± 0.0007	1.4358 ± 0.0007	1.4331 ± 0.0007	1.4304 ± 0.0007
x2 = 0.7836	1.4468 ± 0.0007	1.4441 ± 0.0007	1.4413 ± 0.0007	1.4386 ± 0.0007	1.4359 ± 0.0007	1.4333 ± 0.0007	1.4306 ± 0.0007
x2 = 0.889	1.4469 ± 0.0007	1.4442 ± 0.0007	1.4416 ± 0.0007	1.4389 ± 0.0007	1.4362 ± 0.0007	1.4336 ± 0.0007	1.431 ± 0.0007
x2 = 0.9535	1.447 ± 0.0007	1.4443 ± 0.0007	1.4417 ± 0.0007	1.439 ± 0.0007	1.4364 ± 0.0007	1.4338 ± 0.0007	1.4313 ± 0.0007
